Data as given in article PMC7614687, “Modulation of the substrate specificity of the kinase PDK1 by distinct conformations of the full-length protein*” (Science signaling, 2023).

Target: T1, PDK1_50-359 (Homo sapiens, UniProt O15530)
T1 construct: His (N); made in house; host or cells: insect cells (stated for the crystallography batch)
T1 sequence (O15530 50-359): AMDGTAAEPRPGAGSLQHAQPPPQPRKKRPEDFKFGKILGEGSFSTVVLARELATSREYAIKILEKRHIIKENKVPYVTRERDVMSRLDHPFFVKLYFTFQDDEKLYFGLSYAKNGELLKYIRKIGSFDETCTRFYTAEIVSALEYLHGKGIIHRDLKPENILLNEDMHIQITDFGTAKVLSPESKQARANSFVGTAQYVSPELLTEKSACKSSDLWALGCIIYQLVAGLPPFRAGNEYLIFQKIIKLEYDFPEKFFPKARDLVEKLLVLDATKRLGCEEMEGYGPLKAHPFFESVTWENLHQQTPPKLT
Test: Differential scanning fluorimetry, thermal stability of PDK1_50-359 (catalytic domain)
Format: binding
Method: The thermal stability of PDK1 was assessed by monitoring the unfolding of PDK1 by the increase in the fluorescence of SYPRO Orange (Invitrogen) using a real-time PCR device (StepOnePlus, Applied Biosystems and BioRad CFX96) following a previously described protocol ([70]). The reactions were performed in a final volume of 10 μl in white 96-well PCR microtiter plates (Greiner) and contained 1 μM PDK1, 10 mM HEPES (pH 7.5), 150 mM NaCl, 1/1000 SYPRO Orange and 1 mM dithiothreitol. For valsartan, the assay buffer was modified to exclude NaCl. PIFtide or compounds (at a final DMSO concentration of 1%) were added to this reaction mixture. The temperature gradient was performed in steps of 0.3 °C in the range from 25 to 70 °C. To calculate the Tm values, data were exported to GraphPad Prism and curves fitted to a Boltzmann sigmoidal equation with an acceptable confidence interval of 95%. Statistical analysis was performed with Infostat software (http://www.infostat.com.ar) and GraphPad Prism by first verifying a normal distribution of pooled residuals (Shapiro-Wilks test) and homogeneity of variance (F test), and then performing a one-way ANOVA followed by the post hoc comparisons test indicated in each figure legend.

SMILES: O=C(O[C@H]1[C@@H](OP(=O)(O)O)[C@H](OP(=O)(O)O)[C@@H](OP(=O)(O)O)[C@H](OP(=O)(O)O)[C@H]1OP(=O)(O)O)c1ccccc1 [HYG8, 2-O-benzoyl-IP5]
- effect on thermal stability of PDK1_50-359 (catalytic domain): without affecting
